This note sets out measurements from US11117900B2 (Vertex Pharmaceuticals Incorporated, priority 2012, dated 2021).

Each structure is given as a SMILES string.

This test has as its system HCT116 colorectal cancer cells. Nature of the test: Cisplatin sensitization assay (96 h MTS cell viability).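 Note: compound concentration needed to lower the IC50 of Cisplatin alone by a set fold.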 Format: cell-based. As to conditions: Cisplatin sensitization value. An outline of the steps: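 HCT116 cells were dosed simultaneously with compound and cisplatin as a full matrix of 2-fold serial dilutions from 10 μM top final concentration. Incubation was 96 h at 37° C., 5% CO2, followed by 1 h with MTS reagent for the viability read-out. Sensitization values were binned into +++, ++ and + categories.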
With `Nc1nn2cc(F)cnc2c1C(=O)Nc1cncc(Cl)c1N1CCC(C(=O)N2CCN3CCC2CC3)CC1` [I-G-66, N-(4-(4-(1,4-diazabicyclo[3.2.2]nonane-4-carbonyl)piperidin-1-yl)-5-chloropyridin-3-yl)-2-amino-6-fluoropyrazolo[1,5-a]pyrimidine-3-carboxamide], the “Cisplatin Sensitization Assay” value is recorded as “+++ (Compounds with a Cisplatin sensitization value of <0.02 μM are marked with “+++.”)”.

Regarding `CN1CCN(c2ccncc2NC(=O)c2c(N)nn3cc(Cl)cnc23)CC1` [I-N-59, 2-amino-6-chloro-N-(4-(4-methylpiperazin-1-yl)pyridin-3-yl)pyrazolo[1,5-a]pyrimidine-3-carboxamide], the “Cisplatin Sensitization Assay” value was “++ (Compounds with a Cisplatin sensitization value >0.02 μM but <0.2 μM are marked with “++.”)”.

On to `CN(C)S(=O)(=O)C1CCN(c2c(F)cncc2NC(=O)c2c(N)nn3cc(F)cnc23)CC1` [I-N-146, 2-amino-N-(4-(4-(N,N-dimethylsulfamoyl)piperidin-1-yl)-5-fluoropyridin-3-yl)-6-fluoropyrazolo[1,5-a]pyrimidine-3-carboxamide], for which the “Cisplatin Sensitization Assay” value is on record as “+++ (Compounds with a Cisplatin sensitization value of <0.02 μM are marked with “+++.”)”.

For the compound `Nc1nn2cc(F)cnc2c1C(=O)Nc1cnccc1N1CCN2C(=O)CCCC2C1` (centres unmarked) [I-N-244, 2-amino-6-fluoro-N-(4-(6-oxohexahydro-1H-pyrido[1,2-a]pyrazin-2(6H)-yl)pyridin-3-yl)pyrazolo[1,5-a]pyrimidine-3-carboxamide], the “Cisplatin Sensitization Assay” value is reported as “+++ (Compounds with a Cisplatin sensitization value of <0.02 μM are marked with “+++.”)”.

For `Nc1nn2cc(F)cnc2c1C(=O)Nc1cnccc1O[C@H]1CN2CCC1CC2` [I-O-5, (R)-2-amino-6-fluoro-N-(4-(quinuclidin-3-yloxy)pyridin-3-yl)pyrazolo[1,5-a]pyrimidine-3-carboxamide], the “Cisplatin Sensitization Assay” value is on record as “+++ (Compounds with a Cisplatin sensitization value of <0.02 μM are marked with “+++.”)”.

`Cc1nc(O[C@@H]2CCN(C)C2)ccc1-c1ccncc1NC(=O)c1c(N)nn2cc(F)cnc12` [I-C-41, (R)-2-amino-6-fluoro-N-(2-methyl-6-((1-methylpyrrolidin-3-yl)oxy)-[3,4′-bipyridin]-3′-yl)pyrazolo[1,5-a]pyrimidine-3-carboxamide]: the “Cisplatin Sensitization Assay” value is on record as “+++ (Compounds with a Cisplatin sensitization value of <0.02 μM are marked with “+++.”)”.

`CCOc1ccncc1NC(=O)c1c(N)nn2cc(CC#N)cnc12` [I-O-28, 2-amino-6-(cyanomethyl)-N-(4-ethoxypyridin-3-yl)pyrazolo[1,5-a]pyrimidine-3-carboxamide]: the “Cisplatin Sensitization Assay” value is “+++ (Compounds with a Cisplatin sensitization value of <0.02 μM are marked with “+++.”)”.

Consider `Nc1nn2cc(F)cnc2c1C(=O)Nc1cnccc1OC1CCN(C2COC2)CC1` [I-O-11, 2-amino-6-fluoro-N-(4-((1-(oxetan-3-yl)piperidin-4-yl)oxy)pyridin-3-yl)pyrazolo[1,5-a]pyrimidine-3-carboxamide], for which the “Cisplatin Sensitization Assay” value is reported as “+++ (Compounds with a Cisplatin sensitization value of <0.02 μM are marked with “+++.”)”.

As to `Nc1nn2cc(F)cnc2c1C(=O)Nc1cnccc1O[C@H]1CCCNC1` [I-O-85, (S)-2-amino-6-fluoro-N-(4-(piperidin-3-yloxy)pyridin-3-yl)pyrazolo[1,5-a]pyrimidine-3-carboxamide], the “Cisplatin Sensitization Assay” value is listed as “+++ (Compounds with a Cisplatin sensitization value of <0.02 μM are marked with “+++.”)”.

For `CN1CCN(C(=O)N2CCN(c3c(F)cncc3NC(=O)c3c(N)nn4cc(F)cnc34)CC2)CC1` [I-N-140, 2-amino-6-fluoro-N-(5-fluoro-4-(4-(4-methylpiperazine-1-carbonyl)piperazin-1-yl)pyridin-3-yl)pyrazolo[1,5-a]pyrimidine-3-carboxamide], the “Cisplatin Sensitization Assay” value was “+++ (Compounds with a Cisplatin sensitization value of <0.02 μM are marked with “+++.”)”.

In the case of `N#CCc1cnc2c(C(=O)Nc3cnccc3N3CCCC3)c(N)nn2c1` [I-N-77, 2-amino-6-(cyanomethyl)-N-(4-(pyrrolidin-1-yl)pyridin-3-yl)pyrazolo[1,5-a]pyrimidine-3-carboxamide], the “Cisplatin Sensitization Assay” value is on record as “+ (Compounds with a Cisplatin sensitization value >0.2 μM but <5 μM are marked with “+.”)”.

For the compound `COc1ccncc1NC(=O)c1c(N)nn2cc(F)cnc12` [I-O-4, 2-amino-6-fluoro-N-(4-methoxypyridin-3-yl)pyrazolo[1,5-a]pyrimidine-3-carboxamide], the “Cisplatin Sensitization Assay” value is reported as “++ (Compounds with a Cisplatin sensitization value >0.02 μM but <0.2 μM are marked with “++.”)”.

Consider `Nc1nn2cc(F)cnc2c1C(=O)Nc1cncc(F)c1N1CCN(S(=O)(=O)C2CCOCC2)CC1` [I-N-158, 2-amino-6-fluoro-N-(5-fluoro-4-(4-((tetrahydro-2H-pyran-4-yl)sulfonyl)piperazin-1-yl)pyridin-3-yl)pyrazolo[1,5-a]pyrimidine-3-carboxamide], for which the “Cisplatin Sensitization Assay” value is “+++ (Compounds with a Cisplatin sensitization value of <0.02 μM are marked with “+++.”)”.

`CN1CCN(c2c(F)cncc2NC(=O)c2c(N)nn3cc(CC#N)cnc23)CC1` [I-N-80, 2-amino-6-(cyanomethyl)-N-(5-fluoro-4-(4-methylpiperazin-1-yl)pyridin-3-yl)pyrazolo[1,5-a]pyrimidine-3-carboxamide]: the “Cisplatin Sensitization Assay” value was “++ (Compounds with a Cisplatin sensitization value >0.02 μM but <0.2 μM are marked with “++.”)”.

As to `CN1CCN(C(=O)C2CCN(c3c(F)cncc3NC(=O)c3c(N)nn4cc(Cl)cnc34)CC2)CC1` [I-G-5, 2-amino-6-chloro-N-(5-fluoro-4-(4-(4-methylpiperazine-1-carbonyl)piperidin-1-yl)pyridin-3-yl)pyrazolo[1,5-a]pyrimidine-3-carboxamide], the “Cisplatin Sensitization Assay” value is given as “+++ (Compounds with a Cisplatin sensitization value of <0.02 μM are marked with “+++.”)”.

As for `Nc1nn2cc(F)cnc2c1C(=O)Nc1cncc(F)c1N1CCC(C(=O)N2CCC(N3CCC3)CC2)CC1` [I-G-68, 2-amino-N-(4-(4-(4-(azetidin-1-yl)piperidine-1-carbonyl)piperidin-1-yl)-5-fluoropyridin-3-yl)-6-fluoropyrazolo[1,5-a]pyrimidine-3-carboxamide], the “Cisplatin Sensitization Assay” value is recorded as “+++ (Compounds with a Cisplatin sensitization value of <0.02 μM are marked with “+++.”)”.

Consider `Nc1nn2cc(F)cnc2c1C(=O)Nc1cnccc1OC1CCOC1` (racemic) [I-O-15, (R,S)-2-amino-6-fluoro-N-(4-((tetrahydrofuran-3-yl)oxy)pyridin-3-yl)pyrazolo[1,5-a]pyrimidine-3-carboxamide], for which the “Cisplatin Sensitization Assay” value was “+++ (Compounds with a Cisplatin sensitization value of <0.02 μM are marked with “+++.”)”.

Regarding `Nc1nn2cc(Cl)cnc2c1C(=O)Nc1cnccc1OC1CNC1` [I-O-73, 2-amino-N-(4-(azetidin-3-yloxy)pyridin-3-yl)-6-chloropyrazolo[1,5-a]pyrimidine-3-carboxamide], the “Cisplatin Sensitization Assay” value is listed as “+ (Compounds with a Cisplatin sensitization value >0.2 μM but <5 μM are marked with “+.”)”.

Consider `CN1CCC(Oc2c(F)cncc2NC(=O)c2c(N)nn3cc(F)cnc23)CC1` [I-O-89, 2-amino-6-fluoro-N-(5-fluoro-4-((1-methylpiperidin-4-yl)oxy)pyridin-3-yl)pyrazolo[1,5-a]pyrimidine-3-carboxamide], for which the “Cisplatin Sensitization Assay” value is recorded as “++ (Compounds with a Cisplatin sensitization value >0.02 μM but <0.2 μM are marked with “++.”)”.

In the case of `N#CCc1cnc2c(C(=O)Nc3cnccc3N3CCCCCC3)c(N)nn2c1` [I-N-79, 2-amino-N-(4-(azepan-1-yl)pyridin-3-yl)-6-(cyanomethyl)pyrazolo[1,5-a]pyrimidine-3-carboxamide], the “Cisplatin Sensitization Assay” value is listed as “++ (Compounds with a Cisplatin sensitization value >0.02 μM but <0.2 μM are marked with “++.”)”.

Consider `CN(C)CCc1cnn(-c2ccncc2NC(=O)c2c(N)nn3cc(F)cnc23)c1` [I-N-9, 2-amino-N-(4-(4-(2-(dimethylamino)ethyl)-1H-pyrazol-1-yl)pyridin-3-yl)-6-fluoropyrazolo[1,5-a]pyrimidine-3-carboxamide], for which the “Cisplatin Sensitization Assay” value was “+ (Compounds with a Cisplatin sensitization value >0.2 μM but <5 μM are marked with “+.”)”.

`Nc1nn2cc(F)cnc2c1C(=O)Nc1cnccc1C1CCOC1` (centres unmarked) [I-C-75, 2-amino-6-fluoro-N-(4-(tetrahydrofuran-3-yl)pyridin-3-yl)pyrazolo[1,5-a]pyrimidine-3-carboxamide]: the “Cisplatin Sensitization Assay” value is on record as “++ (Compounds with a Cisplatin sensitization value >0.02 μM but <0.2 μM are marked with “++.”)”.

Consider `Nc1nn2cc(F)cnc2c1C(=O)Nc1cnccc1-n1ccnc1` [I-N-7, N-(4-(1H-imidazol-1-yl)pyridin-3-yl)-2-amino-6-fluoropyrazolo[1,5-a]pyrimidine-3-carboxamide], for which the “Cisplatin Sensitization Assay” value is “++ (Compounds with a Cisplatin sensitization value >0.02 μM but <0.2 μM are marked with “++.”)”.

As for `Nc1nn2cc(F)cnc2c1C(=O)Nc1cnccc1N1CCN2CCC[C@H]2C1` [I-N-21, (S)-2-amino-6-fluoro-N-(4-(hexahydropyrrolo[1,2-a]pyrazin-2(1H)-yl)pyridin-3-yl)pyrazolo[1,5-a]pyrimidine-3-carboxamide], the “Cisplatin Sensitization Assay” value is “+++ (Compounds with a Cisplatin sensitization value of <0.02 μM are marked with “+++.”)”.

As for `Nc1nn2cc(Cl)cnc2c1C(=O)Nc1cnccc1OCC(F)(F)F` [I-O-59, 2-amino-6-chloro-N-(4-(2,2,2-trifluoroethoxy)pyridin-3-yl)pyrazolo[1,5-a]pyrimidine-3-carboxamide], the “Cisplatin Sensitization Assay” value is listed as “+++ (Compounds with a Cisplatin sensitization value of <0.02 μM are marked with “+++.”)”.

For `CN1CC(NC(=O)C2CCN(c3c(F)cncc3NC(=O)c3c(N)nn4cc(F)cnc34)CC2)C1` [I-G-23, 2-amino-6-fluoro-N-(5-fluoro-4-(4-((1-methylazetidin-3-yl)carbamoyl)piperidin-1-yl)pyridin-3-yl)pyrazolo[1,5-a]pyrimidine-3-carboxamide], the “Cisplatin Sensitization Assay” value is recorded as “+++ (Compounds with a Cisplatin sensitization value of <0.02 μM are marked with “+++.”)”.
